Test results from article PMC10408569, “Recruitment of hexahydroquinoline as anticancer scaffold targeting inhibition of wild and mutants EGFR (EGFR^WT, EGFR^T790M, and EGFR^L858R)” (Journal of Enzyme Inhibition and Medicinal Chemistry, 2023).

Key:
SK-MEL-2 = experiment: NCI-60 anticancer screening (SRB); type: cell-based; settings: Homo sapiens; SK-MEL-2, melanoma; one dose 10 μM; read-out: Growth Inhibition Percentage (GI %)
RXF 393 = experiment: NCI-60 anticancer screening (SRB); type: cell-based; settings: Homo sapiens; RXF 393, renal cancer; one dose 10 μM; read-out: Growth Inhibition Percentage (GI %)
SR = experiment: NCI-60 anticancer screening (SRB); type: cell-based; settings: Homo sapiens, leukemia, one dose 10 μM, read-out: Growth Inhibition Percentage (GI %)
MDA-MB-468 = experiment: NCI-60 anticancer screening (SRB); type: cell-based; settings: Homo sapiens; MDA-MB-468, breast cancer; one dose 10 μM; read-out: Growth Inhibition Percentage (GI %)
BT-549 = experiment: NCI-60 anticancer screening (SRB); type: cell-based; settings: Homo sapiens; BT-549, breast cancer; one dose 10 μM; read-out: Growth Inhibition Percentage (GI %)
LOX IMVI = experiment: NCI-60 anticancer screening (SRB); type: cell-based; settings: Homo sapiens, melanoma, one dose 10 μM, read-out: Growth Inhibition Percentage (GI %)
K-562 = experiment: NCI-60 anticancer screening (SRB); type: cell-based; settings: Homo sapiens, K562; K-562, leukemia; one dose 10 μM; read-out: Growth Inhibition Percentage (GI %)
NCI/ADR-RES = experiment: NCI-60 anticancer screening (SRB); type: cell-based; settings: Homo sapiens, ovarian cancer, one dose 10 μM, read-out: Growth Inhibition Percentage (GI %)
NCI-H226 = experiment: NCI-60 anticancer screening (SRB); type: cell-based; settings: Homo sapiens; NCI-H226, NSC lung cancer; one dose 10 μM; read-out: Growth Inhibition Percentage (GI %)
M14 = experiment: NCI-60 anticancer screening (SRB); type: cell-based; settings: Homo sapiens; M14, melanoma; one dose 10 μM; read-out: Growth Inhibition Percentage (GI %)
786-0 = experiment: NCI-60 anticancer screening (SRB); type: cell-based; settings: Homo sapiens; 786-0, renal cancer; one dose 10 μM; read-out: Growth Inhibition Percentage (GI %)
PC-3 = experiment: NCI-60 anticancer screening (SRB); type: cell-based; settings: Homo sapiens; PC-3, prostate cancer; one dose 10 μM; read-out: Growth Inhibition Percentage (GI %)
U251 = experiment: NCI-60 anticancer screening (SRB); type: cell-based; settings: Homo sapiens, U-251; U251, CNS cancer; one dose 10 μM; read-out: Growth Inhibition Percentage (GI %)
OVCAR-5 = experiment: NCI-60 anticancer screening (SRB); type: cell-based; settings: Homo sapiens; OVCAR-5, ovarian cancer; one dose 10 μM; read-out: Growth Inhibition Percentage (GI %)
UACC-257 = experiment: NCI-60 anticancer screening (SRB); type: cell-based; settings: Homo sapiens; UACC-257, melanoma; one dose 10 μM; read-out: Growth Inhibition Percentage (GI %)
A498 = experiment: NCI-60 anticancer screening (SRB); type: cell-based; settings: Homo sapiens; A498, renal cancer; one dose 10 μM; read-out: Growth Inhibition Percentage (GI %)
MCF7 = experiment: NCI-60 anticancer screening (SRB); type: cell-based; settings: Homo sapiens; MCF7, breast cancer; one dose 10 μM; read-out: Growth Inhibition Percentage (GI %)
NCI-H322M = experiment: NCI-60 anticancer screening (SRB); type: cell-based; settings: Homo sapiens, NSC lung cancer, one dose 10 μM, read-out: Growth Inhibition Percentage (GI %)
CCRF-CEM = experiment: NCI-60 anticancer screening (SRB); type: cell-based; settings: Homo sapiens, leukemia, one dose 10 μM, read-out: Growth Inhibition Percentage (GI %)
HL-60(TB) = experiment: NCI-60 anticancer screening (SRB); type: cell-based; settings: Homo sapiens, leukemia, one dose 10 μM, read-out: Growth Inhibition Percentage (GI %)
KM 12 = experiment: NCI-60 anticancer screening (SRB); type: cell-based; settings: Homo sapiens, KM12; KM 12, colon cancer; one dose 10 μM; read-out: Growth Inhibition Percentage (GI %)
NCI 60 cancer cell lines = experiment: NCI-60 anticancer screening (SRB), whole panel; type: cell-based, human; settings: mean across the NCI-60 panel; one dose 10 μM
SK-OV-3 = experiment: NCI-60 anticancer screening (SRB); type: cell-based; settings: Homo sapiens; SK-OV-3, ovarian cancer; one dose 10 μM; read-out: Growth Inhibition Percentage (GI %)
MDA-MB-231 = experiment: NCI-60 anticancer screening (SRB); type: cell-based; settings: Homo sapiens; MDA-MB-231, breast cancer; one dose 10 μM; read-out: Growth Inhibition Percentage (GI %)
SW-620 = experiment: NCI-60 anticancer screening (SRB); type: cell-based; settings: Homo sapiens; SW-620, colon cancer; one dose 10 μM; read-out: Growth Inhibition Percentage (GI %)
SF-268 = experiment: NCI-60 anticancer screening (SRB); type: cell-based; settings: Homo sapiens; SF-268, CNS cancer; one dose 10 μM; read-out: Growth Inhibition Percentage (GI %)
HCT-15 = experiment: NCI-60 anticancer screening (SRB); type: cell-based; settings: Homo sapiens; HCT-15, colon cancer; one dose 10 μM; read-out: Growth Inhibition Percentage (GI %)
T-47D = experiment: NCI-60 anticancer screening (SRB); type: cell-based; settings: Homo sapiens, T47D, breast cancer, one dose 10 μM, read-out: Growth Inhibition Percentage (GI %)
TK-10 = experiment: NCI-60 anticancer screening (SRB); type: cell-based; settings: Homo sapiens; TK-10, renal cancer; one dose 10 μM; read-out: Growth Inhibition Percentage (GI %)
HCT-116 = experiment: NCI-60 anticancer screening (SRB); type: cell-based; settings: Homo sapiens; HCT-116, colon cancer; one dose 10 μM; read-out: Growth Inhibition Percentage (GI %)
IGROV1 = experiment: NCI-60 anticancer screening (SRB); type: cell-based; settings: Homo sapiens, IGROV-1; IGROV1, ovarian cancer; one dose 10 μM; read-out: Growth Inhibition Percentage (GI %)
SNB-75 = experiment: NCI-60 anticancer screening (SRB); type: cell-based; settings: Homo sapiens; SNB-75, CNS cancer; one dose 10 μM; read-out: Growth Inhibition Percentage (GI %)
COLO 205 = experiment: NCI-60 anticancer screening (SRB); type: cell-based; settings: Homo sapiens; COLO 205, colon cancer; one dose 10 μM; read-out: Growth Inhibition Percentage (GI %)

SMILES	inhibition at 10 µM (SK-MEL-2) [%]	inhibition at 10 µM (RXF 393) [%]	inhibition at 10 µM (SR) [%]	inhibition at 10 µM (MDA-MB-468) [%]	inhibition at 10 µM (BT-549) [%]	inhibition at 10 µM (LOX IMVI) [%]	inhibition at 10 µM (K-562) [%]	inhibition at 10 µM (NCI/ADR-RES) [%]	inhibition at 10 µM (NCI-H226) [%]	inhibition at 10 µM (M14) [%]	inhibition at 10 µM (786-0) [%]	inhibition at 10 µM (PC-3) [%]	inhibition at 10 µM (U251) [%]	inhibition at 10 µM (OVCAR-5) [%]	inhibition at 10 µM (UACC-257) [%]	inhibition at 10 µM (A498) [%]	inhibition at 10 µM (MCF7) [%]	inhibition at 10 µM (NCI-H322M) [%]	inhibition at 10 µM (CCRF-CEM) [%]	inhibition at 10 µM (HL-60(TB)) [%]	other results
CCOC(=O)C1=C(N)N(c2ccc(Cl)cc2)C2=C(C(=O)CC(C)(C)C2)C1c1ccc(Cl)cc1Cl (racemic) [10d, (±)-Ethyl 2-amino-1–(4-chorophenyl)-4–(2,4-dichlorophenyl)-7,7-dimethyl-5-oxo-1-phenyl-1,4,5,6,7,8-hexahydroquinoline-3-carboxylate]	37	38	75	82	24	< 10	79	47	62	30	31	79	58	17	43	23	70	29	64	79	inhibition at 10 µM (KM 12): 54%; GI % mean (NCI 60 cancer cell lines): 48%; inhibition at 10 µM (SK-OV-3): 46%; inhibition at 10 µM (MDA-MB-231): 42%; inhibition at 10 µM (SW-620): < 10%; inhibition at 10 µM (SF-268): 27%; inhibition at 10 µM (HCT-15): 65%; inhibition at 10 µM (T-47D): 74%; inhibition at 10 µM (TK-10): 30%; inhibition at 10 µM (HCT-116): 66%; inhibition at 10 µM (IGROV1): 16%; inhibition at 10 µM (SNB-75): 11%; inhibition at 10 µM (COLO 205): 53%
CCOC(=O)C1=C(N)N(c2ccccc2)C2=C(C(=O)CC(C)(C)C2)C1c1ccccn1 (racemic) [12a, (±)-Ethyl 2-amino-7,7-dimethyl-5-oxo-1-phenyl-4-(pyridin-2-yl)-1,4,5,6,7,8-hexahydroquinoline-3-carboxylate]	< 10	< 10	16	< 10	< 10	< 10	< 10	< 10	< 10	< 10	< 10	< 10	< 10	< 10	< 10	< 10	< 10	< 10	< 10	< 10	inhibition at 10 µM (KM 12): < 10%; GI % mean (NCI 60 cancer cell lines): - ((-) = GI % mean less than 10); inhibition at 10 µM (SK-OV-3): < 10%; inhibition at 10 µM (MDA-MB-231): < 10%; inhibition at 10 µM (SW-620): < 10%; inhibition at 10 µM (SF-268): < 10%; inhibition at 10 µM (HCT-15): < 10%; inhibition at 10 µM (T-47D): < 10%; inhibition at 10 µM (TK-10): < 10%; inhibition at 10 µM (HCT-116): < 10%; inhibition at 10 µM (IGROV1): < 10%; inhibition at 10 µM (SNB-75): 19%; inhibition at 10 µM (COLO 205): < 10%
CCOC(=O)C1=C(N)N(c2ccc(C)cc2)C2=C(C(=O)CC(C)(C)C2)C1c1ccccn1 (racemic) [12b, (±)-Ethyl 2-amino-7,7-dimethyl-1–(4-methylphenyl)-5-oxo-1-phenyl-4-(pyrdin-2-yl)-1,4,5,6,7,8-hexahydroquinoline-3-carboxylate]	< 10	< 10	< 10	82	30	< 10	< 10	< 10	< 10	< 10	< 10	< 10	< 10	< 10	< 10	< 10	12	< 10	< 10	< 10	inhibition at 10 µM (KM 12): < 10%; GI % mean (NCI 60 cancer cell lines): - ((-) = GI % mean less than 10); inhibition at 10 µM (SK-OV-3): < 10%; inhibition at 10 µM (MDA-MB-231): 13%; inhibition at 10 µM (SW-620): < 10%; inhibition at 10 µM (SF-268): 14%; inhibition at 10 µM (HCT-15): < 10%; inhibition at 10 µM (T-47D): < 10%; inhibition at 10 µM (TK-10): < 10%; inhibition at 10 µM (HCT-116): < 10%; inhibition at 10 µM (IGROV1): < 10%; inhibition at 10 µM (SNB-75): 19%; inhibition at 10 µM (COLO 205): < 10%
